Experimental findings from BindingDB's records for doi:10.1007/s00044-013-0847-2 (n/a, 2013) are described below.

The target of experiment [1] is Acetylcholinesterase (Homo sapiens, UniProt P22303). Description: Inhibition of AChE (unknown origin) using acetyl thiocholine iodide as substrate after 30 mins by Ellman's method. A general note: In Ellman's method for cholinesterases, released thiocholine reacts with DTNB.
In experiment [2] the target is Cholinesterase (Homo sapiens, UniProt P06276). Kind of experiment: Inhibition of BChE (unknown origin) using butyryl thiocholine iodide as substrate after 30 mins by Ellman's method.
Chain of Cholinesterase (P06276 whole entry): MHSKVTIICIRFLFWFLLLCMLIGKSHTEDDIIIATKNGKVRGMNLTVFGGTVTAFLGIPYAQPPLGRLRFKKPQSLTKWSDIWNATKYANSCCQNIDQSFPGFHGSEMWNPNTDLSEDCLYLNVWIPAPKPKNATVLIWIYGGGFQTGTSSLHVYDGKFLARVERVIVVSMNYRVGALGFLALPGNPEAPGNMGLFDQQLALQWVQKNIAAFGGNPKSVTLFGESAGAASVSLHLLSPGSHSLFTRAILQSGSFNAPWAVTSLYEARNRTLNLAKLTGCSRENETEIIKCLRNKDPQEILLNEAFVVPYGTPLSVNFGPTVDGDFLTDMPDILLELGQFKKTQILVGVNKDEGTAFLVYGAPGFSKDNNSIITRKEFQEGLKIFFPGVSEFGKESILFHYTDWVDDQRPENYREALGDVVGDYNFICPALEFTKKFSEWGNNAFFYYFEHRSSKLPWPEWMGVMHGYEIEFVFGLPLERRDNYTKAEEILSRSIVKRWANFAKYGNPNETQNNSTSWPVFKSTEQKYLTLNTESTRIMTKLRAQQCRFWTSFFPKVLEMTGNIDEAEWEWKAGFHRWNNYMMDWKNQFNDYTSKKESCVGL

Chain of Acetylcholinesterase (P22303 whole entry): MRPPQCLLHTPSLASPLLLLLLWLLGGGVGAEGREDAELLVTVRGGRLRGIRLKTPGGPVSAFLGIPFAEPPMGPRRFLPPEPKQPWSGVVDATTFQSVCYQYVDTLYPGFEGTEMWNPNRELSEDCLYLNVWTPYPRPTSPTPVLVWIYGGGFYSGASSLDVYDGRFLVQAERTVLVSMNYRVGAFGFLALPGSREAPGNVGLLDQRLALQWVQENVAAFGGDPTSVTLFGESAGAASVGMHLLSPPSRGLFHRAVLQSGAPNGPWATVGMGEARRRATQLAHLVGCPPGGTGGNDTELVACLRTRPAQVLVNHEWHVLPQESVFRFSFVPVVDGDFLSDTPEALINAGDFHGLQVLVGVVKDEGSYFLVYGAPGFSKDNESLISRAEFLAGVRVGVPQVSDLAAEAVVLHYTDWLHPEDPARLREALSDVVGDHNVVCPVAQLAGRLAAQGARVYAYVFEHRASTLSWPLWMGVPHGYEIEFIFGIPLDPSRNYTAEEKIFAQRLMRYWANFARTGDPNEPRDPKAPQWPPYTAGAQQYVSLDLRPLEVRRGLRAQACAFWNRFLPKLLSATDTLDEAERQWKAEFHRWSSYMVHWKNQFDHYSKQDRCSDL

In the case of `O=C1NC(=S)NC(=O)C1=CNNC(=S)Nc1ccccc1`, the figures for the IC50 in experiment [1] and in experiment [2] were 115 µM and 57.1 µM, respectively.
The like results for `O=C1NC(=S)NC(=O)C1=CNNC(=S)Nc1ccc(C(F)(F)F)cc1` were, in that order, 99.4 µM and 8.1 µM.
The corresponding values for `O=C(NNC=C1C(=O)NC(=S)NC1=O)Nc1ccccc1` are 74.2 µM and 3.31 µM.
The like results for `O=C1NC(=S)NC(=O)C1=CNNC(=S)Nc1ccc(F)cc1` were, in that order, 78.4 µM and 57.8 µM.
With `O=C1NC(=S)NC(=O)C1=CNNC(=S)Nc1ccc(Br)cc1`, the IC50 turned out to be 79.2 µM in experiment [1] and 68.4 µM in experiment [2].
Take `NC(=S)NNC=C1C(=O)NC(=O)NC1=O`: the IC50 is 119 µM in experiment [1] and 56.5 µM in experiment [2].
In experiment [2], `O=C1NC(=O)C(=CNNC(=O)Nc2ccccc2)C(=O)N1` showed a half-inhibitory concentration (IC50) of 38.5 µM.
Turning to `O=C1NC(=O)C(=CNNC(=S)Nc2cccc(C(F)(F)F)c2)C(=O)N1`, the 50% inhibitory concentration (IC50) in experiment [1] was determined as 40.7 µM; in experiment [2], 136 µM.
The like results for `COc1ccc(NC(=S)NNC=C2C(=O)NC(=S)NC2=O)cc1` were, in that order, 206 µM and 56.8 µM.
Consider `CC(=O)NC=C1C(=O)NC(=O)NC1=O`, for which the values for the IC50 in experiment [1] and in experiment [2] were 90.9 µM and 116 µM, respectively.
The like results for `O=C1NC(=S)NC(=O)C1=CNNC(=S)Nc1ccc(Cl)cc1` were, in that order, 121 µM and 75.4 µM.
Turning to `N#Cc1ccc(NC(=S)NNC=C2C(=O)NC(=O)NC2=O)cc1`, half-maximal inhibition in experiment [2] (IC50) was put at 231 µM.
Still for that read-out and setting: the same measure for `Cc1cccc(Cl)c1NC(=S)NNC=C1C(=O)NC(=O)NC1=O`: 8.81 µM.

The term IC50 denotes the concentration that gives 50% inhibition.
